Measurements reported in patent US11802147B2, “High affinity monoclonal antibodies for detecting amanitins” (priority 2019, dated 2023).
Converted amounts (≈) assume the structure as drawn. Read-outs that look alike come from different tables or passages of the source. Starred links: 1 amine or outer side, 2 acyl side, 3 side chain; linkers in the order of their positions; H or OH if unused. Positions of bridges follow the written chain, without caps; N, C: chain ends. Non-standard residues stand in square brackets, D forms with d. Residues, ends and D or L forms follow the SMILES beside them. ξ: configuration not given here. Adda = CO[C@@H](Cc1ccccc1)[C@@H](C)/C=C(C)/C=C/[C@H](N[*:1])[C@H](C)C(=O)[*:2]; Trp(2-yl) = O=C([C@H](Cc1c([*:3])[nH]c2ccccc12)N[*:1])[*:2]; dAsp(3S-Me) = C[C@H](C(=O)[*:3])[C@@H](N[*:1])C(=O)[*:2]; ξTrp(2-yl) = O=C(C(Cc1c([*:3])[nH]c2ccccc12)N[*:1])[*:2]; Leu(4R-OH,5-OH) = C[C@](O)(CO)C[C@H](N)C(=O)O; d(γGlu) = O=C(O)[C@@H](CCC(=O)[*:2])N[*:1]; X1 = CC(O)(CO)CC(N[*:1])C(=O)[*:2]; cisHyp = O=C(O)[C@@H]1C[C@H](O)CN1; ξAsp(3ξ-OH) = NC(C(=O)O)C(O)C(=O)O; Hyp = O=C(O)[CH]1C[CH](O)CN1; NMeDha = C=C(NC)C(=O)O

Assays:
mAb AMA9G3 = format: binding, mouse; set-up: concentration at which test strips detect: unit not given here; conditions: for concentration giving complete inhibition of the signal: either hapten as test line; for CR (cross-reactivity): lateral flow test strips
mAb 9C12.2 = format: binding, mouse; conditions: for competitive inhibition of mAb 9C12.2: cELISA, up to 1,000 ng/mL; for recognition by mAb 9C12.2: statement of deposit
mAb 9G3.2 = format: binding, mouse; conditions: for competitive inhibition of mAb 9G3.2: cELISA, up to 1,000 ng/mL; for recognition by mAb 9G3.2: statement of deposit
[1] = tested on: Previously described mAbs to amatoxins; conditions: He et al; cited from earlier work
[2] = mAb 9C12.2, (IC50 α-AMA)/(IC50 test inhibitor)×100
[3] = mAb 9C12.2, inhibitor mixed with antibody, PERI-AMA-BSA coated plate
[4] = mAb 9G3.2, (IC50 α-AMA)/(IC50 test inhibitor)×100
[5] = mAb 9G3.2, inhibitor mixed with antibody, PERI-AMA-BSA coated plate
[6] = cross-reactivity with near neighbor compounds

Compound	concentration giving complete inhibition of the signal (mAb AMA9G3) [ng/mL]	competitive inhibition of mAb 9C12.2 (mAb 9C12.2)	Cross reactivity (mAb 9C12.2; [2]) [%]	IC50 (mAb 9C12.2; [3]) [µg/mL]	recognition by mAb 9C12.2 (mAb 9C12.2)	competitive inhibition of mAb 9G3.2 (mAb 9G3.2)	Cross reactivity (mAb 9G3.2; [4]) [%]	IC50 (mAb 9G3.2; [5]) [µg/mL]	recognition by mAb 9G3.2 (mAb 9G3.2)	IC50 of previously described mAbs [1] [µg/mL]	detection by test strips (mAb AMA9G3; [6])	detection by test strips (mAb AMA9G3)	Cross reactivity (mAb 9C12.2) [%]	IC50 (mAb 9C12.2) [µg/mL]	Cross reactivity (mAb 9G3.2) [%]	IC50 (mAb 9G3.2) [µg/mL]	concentration at which test strips detect (mAb AMA9G3; [6])	CR (cross-reactivity) (mAb AMA9G3) [%]
CC[C@H](C)[C@@H]1NC(=O)CNC(=O)[C@@H]2Cc3c([nH]c4cc(O)ccc34)[S+]([O-])C[C@@H](NC(=O)CNC1=O)C(=O)N[C@@H](CC(N)=O)C(=O)N1C[C@H](O)C[C@H]1C(=O)N[C@@H]([C@@H](C)[C@@H](O)CO)C(=O)N2 (stereo in doubt) [α-amanitin]	10	competitively inhibited	100	0.00266 ± 0.00018 (≈ 0.00289 µM)	recognizes	competitively inhibited	100	0.00157 (≈ 0.00171 µM)	recognizes	0.066								
N[C@H](C(=O)O)c1cc(=O)[nH]o1 [ibotenic acid]			<0.3	>1			<0.3	>1			did not detect							
C=C1C(=O)N[C@H](C)C(=O)N[C@@H](CC(C)C)C(=O)N[C@@H](C(=O)O)[C@H](C)C(=O)N[C@@H](CCCNC(=N)N)C(=O)N[C@@H](/C=C/C(C)=C/[C@H](C)[C@H](Cc2ccccc2)OC)[C@H](C)C(=O)N[C@@H](C(=O)O)CCC(=O)N1C [microcystin-LR] (R[Adda][d(γGlu)][NMeDha][dA]L[dAsp(3S-Me)]-OH; lactam N-7)												did not detect	<0.3	>1	<0.3	>1		
NCc1cc(=O)[nH]o1 [muscimol]			<0.3	>1			<0.3	>1			did not detect							
C/C=C1/C(=O)N[C@@H](C(=O)O)[C@H](C)C(=O)N[C@@H](CCCNC(=N)N)C(=O)N[C@@H](/C=C/C(C)=C/[C@H](C)[C@H](Cc2ccccc2)OC)[C@H](C)C(=O)N[C@@H](C(=O)O)CCC(=O)N1C [nodularin]												did not detect	<0.3	>1	<0.3	>1		
CC1NC(=O)C2CC(O)CN2C(=O)C2CSc3[nH]c4ccccc4c3CC(NC1=O)C(=O)NC(CC(C)(O)CO)C(=O)NC(C(C)C)C(=O)NC(C(O)C(=O)O)C(=O)N2 (stereo not drawn) [phallacidin] (cyclo([ξAsp(3ξ-OH)]C[Hyp]A[ξTrp(2-yl)][X1]V); thioether 2-5; configuration not given here)			<0.3	>1			<0.3	>1									200	0.005
C[C@@H]1NC(=O)[C@H](C[C@@](C)(O)CO)NC(=O)[C@@H]2Cc3c([nH]c4ccccc34)SC[C@H](NC(=O)[C@@H]([C@H](C)O)NC1=O)C(=O)N1C[C@@H](O)C[C@H]1C(=O)N[C@@H](C)C(=O)N2 [phalloidin] (cyclo(A[dT]C[cisHyp]A[Trp(2-yl)][Leu(4R-OH,5-OH)]); thioether 3-6)			<0.3	>1			<0.3	>1										0.005
β-amanitin		no reduction in signal response	<0.3	>1	recognizes	competitively inhibited	6.5	0.0242 ± 0.0062	recognizes									
γ-amanitin	10	competitively inhibited	115	0.0023 ± 0.00031		competitively inhibited	96	0.00163 ± 0.00021	recognizes									
